Measurements from patent US11103526B2, “Methods for treatment using small molecule potassium-sparing diuretics and natriuretics” (University of Pittsburgh—Of the Commonwealth System of …, priority 2016, dated 2021).

Assays:
anesthetized rats = experiment: Acute cardiovascular and renal effects of an intravenous bolus in anesthetized rats (Example 1); type: in vivo, male Sprague-Dawley rats; details: 33.5 μmoles/kg intravenous bolus
Description: Animals. This study employed male Sprague-Dawley rats (Charles River; Wilmington, Mass.) that were approximately 16 weeks old. The Institutional Animal Care and Use Committee approved all procedures.
The rats were anesthetized with Inactin (90 mg/kg, i.p.) and placed on an isothermal pad, and body temperature was monitored with a rectal probe thermometer and maintained at 37° C. with a heat lamp. […] A PE-50 cannula was inserted into the jugular vein, and an infusion of 0.9% saline at 25 μl/min was initiated. A PE-10 tubing was placed in the left ureter for urine collection. […] The dose was selected based on preliminary experiments with 8-aminoguanosine. […] Each group of rats (n of at least 6) received only one treatment. Ten minutes after the test agents were administered, urine was collected for another 30 minutes (Period 2: […] into the protocol).
Statistics. Absolute values are presented as the mean±SEM. Fold-increases were calculated as follows: Period 3 value÷Period 1 value. Statistical analyses were performed using analysis of variance (ANOVA) followed by Fisher's Least Significant Difference (LSD) test if the overall effects or interactions in the ANOVA were significant. P<0.05 was considered statistically significant.

MCT-induced PH = experiment: Monocrotaline (MCT)-induced pulmonary hypertension; type: in vivo, male Sprague Dawley rats; details: 30 mg/kg/day
Description: Because PNPase metabolizes guanosine to guanine, the mechanism by which PNPase activity is associated with PH likely includes guanosine protection against PH. A total of 24 male Sprague Dawley rats were used to determine whether administration of guanosine attenuates the development of PH in animals with MCT-induced PH. Animals were randomly assigned for intraperitoneal (i.p.) injection with either a mixture of 1 ml of 1N HCl neutralized with 1.0 N NaOH and diluted with distillated water (10 ml/kg, Control group; n=8) or MCT (60 mg/kg, […]). The MCT (Sigma, St Louis, Mo.) was dissolved in 1N HCl at 100 mg/ml, which was neutralized with 1 N NaOH and diluted with distillated water to 6 mg/ml. Next, a subset of MCT rats (n=8) were assigned to receive guanosine (30 mg/kg/day). The rats were randomly assigned to the Control, MCT, or MCT+guanosine group.
In this PH model, three weeks after MCT administration, mortality rapidly increases (Ren et al., J Pharmacol Exp Ther., 325:920-926, 2008; Seoane et al., Southern Medical Journal, 94:635-639, 2001). Therefore, animals were monitored for four weeks, and acute measurements of right ventricular pressure and morphometric analyses were performed. Twenty-eight days after administration of MCT, the animals were anesthetized and instrumented for right ventricular peak systolic pressure (RVPSP) measurement. Briefly, a PE-240 polyethylene catheter was inserted into the trachea to facilitate breathing. An angled Milliar Micro-tip pressure transducer catheter SPR-513 (Millar Instruments) was inserted into the right jugular vein and advanced into the right ventricle (RV) for RVPSP measurement. After 30-minutes of stabilization, RVPSP was recorded over 20 minutes. The animals were euthanized by anesthetic overdose, and the heart and lungs were collected for morphometric analyses.

[1] = tested on: RBCs from SCD patients (HbSS); experiment: Hypoxia-induced sickling of RBCs from SCD patients; type: cell-based, human; details: 2 μmol/L; 1.5 hours pre-incubation, then hypoxia for 3 hours
Description: In addition to causing PH in SCD patients and HIV-infected patients, the contribution of PNPase to RBC sickling in SCD patients was assessed. Fresh RBCs were obtained from two adult SCD patients (HbSS); the RBCs were diluted in F-10 HAM buffer to a final hematocrit of 4%. Next, glucose was added for a final concentration of 5.5 mmol/L, and the samples were incubated at room air/temperature in 12-well plates. The RBCs were then treated with either vehicle, 8-aminoguanosine (2 μmol/L), inosine (2 μmol/L), or an 8-aminoguanosine and inosine combination. After 1.5 hours, the RBCs were placed in a hypoxic glove box and maintained under hypoxia (5% 02) for 3 hours, while undergoing mild agitation. At the end of incubation, to prevent reoxygenation-derived morphological changes, the RBCs were fixed under hypoxic conditions in the hypoxic glove box. The samples were assayed for percent sickling.

[2] = Period 3 compared with Period 1

In the case of `Nc1nc2c(nc(O)n2[C@H]2C[C@H](O)[C@@H](CO)O2)c(=O)[nH]1` [8-hydroxy-2-deoxyguanosine], the “efficacy grouping (diuretic/natriuretic)” value (anesthetized rats) is reported as “little or no efficacy”.

With `Nc1nc2[nH]c(O)nc2c(=O)[nH]1` [8-hydroxyguanine, 8-Hydroxyguanine] the “efficacy grouping (diuretic/natriuretic)” value (anesthetized rats) was “moderate efficacy” and the sodium excretion increase (anesthetized rats; [2]) was 8.6 fold.

`Nc1nc2c(nc(O)n2[C@@H]2O[C@H](CO)[C@@H](O)[C@H]2O)c(=O)[nH]1` [8-hydroxyguanosine, 8-Hydroxyguanosine] was tested, and the “efficacy grouping (diuretic/natriuretic)” value (anesthetized rats) was “moderate efficacy” and the sodium excretion increase (anesthetized rats; [2]) was 7.1 fold.

`Nc1nc2[nH]c([N+](=O)[O-])nc2c(=O)[nH]1` [8-nitroguanine, 8-Nitroguanine] was tested, and the “efficacy grouping (diuretic/natriuretic)” value (anesthetized rats) was “moderate efficacy” and the sodium excretion increase (anesthetized rats; [2]) was 7.8 fold.

`Nc1nc2c(nc([N+](=O)[O-])n2[C@@H]2O[C@H](CO)[C@@H](O)[C@H]2O)c(=O)[nH]1` [8-nitroguanosine] was tested, and the “efficacy grouping (diuretic/natriuretic)” value (anesthetized rats) was “little or no efficacy”.

For `NC(N)=NC(=O)c1nc(Cl)c(N)nc1N` [amiloride, Amiloride, reference compound], the “effect on heart rate (HR)” value (anesthetized rats) was “modestly decreased”, the “effect on mean arterial blood pressure (MABP)” value (anesthetized rats) was “modestly decreased” and the “effect on mesenteric blood flow (MBF)” value (anesthetized rats) was “modestly decreased”. The “effect on renal blood flow (RBF)” value (anesthetized rats) was “modestly decreased”, the urine volume increase (anesthetized rats; Period 3 (85-115 min) compared with Period 1 (0-30 min)) was 4.5 fold and the potassium excretion decrease (anesthetized rats; [2]) was 96.5%. The sodium excretion increase (anesthetized rats; [2]) was 13.6 fold and the “effect on glucose excretion” value (anesthetized rats; in words) was “did not change”.

With `Nc1nc2[nH]cnc2c(=O)[nH]1` [guanine, Guanine, reference compound] the “efficacy grouping (diuretic/natriuretic)” value (anesthetized rats) was “moderate efficacy” and the sodium excretion increase (anesthetized rats; [2]) was 9.4 fold.

`Nc1nc2c(ncn2[C@@H]2O[C@H](CO)[C@@H](O)[C@H]2O)c(=O)[nH]1` [guanosine, Guanosine] was tested, and the “efficacy grouping (diuretic/natriuretic)” value (anesthetized rats) was “little or no efficacy”, the “RV dysfunction (RV EDP, contractility index)” value (MCT-induced PH; 28 days after MCT) was “prevented” and the “RV hypertrophy (RV mass)” value (MCT-induced PH; 28 days after MCT) was “attenuated”. The “inflammatory cell infiltration into the lungs (ED1+ cells)” value (MCT-induced PH; 28 days after MCT) was “reduced”, the pulmonary vascular remodeling (MCT-induced PH; 28 days after MCT) was “attenuated” and the “pulmonary hypertension (RVPSP)” value (MCT-induced PH; 28 days after MCT 60 mg/kg) was “attenuated”.

`O=c1[nH]cnc2c1ncn2[C@@H]1O[C@H](CO)[C@@H](O)[C@H]1O` [inosine, Inosine] was tested, and the “hypoxia-induced sickling of RBCs” value [1] was “significantly reduced”.
